# Assay results reported in US20260217701A1, “SELECTIVE BET INHIBITORS AND USES THEREOF” (Tay Therapeutics Limited, priority 2022, published 2026).
# Values joined by “and” are separate entries in the source; they are usually repeats but may differ in a detail not shown here. Equal values may be shown once. Read-outs that look alike come from different tables or passages of the source.
# Experiments:
# [1] = Rat PK study #4 (Compound A PO 0.2 and 1.0 mg/kg, propylene glycol formulation); type: in vivo, Lewis rats; conditions: propylene glycol-based formulation; for Plasma Concentration / concentration at 0.25 h / concentration at 0.5 h / concentration at 1 h / concentration at 2 h / concentration at 4 h / concentration at 6 h / concentration at 8 h / concentration at 24 h: Lewis rats; for MRT inf: read-out: MRTInf_obs
# Protocol: For the fourth rat pharmacokinetic study, the pharmacokinetics of Compound A were assessed in male Lewis rats. Compound A was prepared in two different doses (0.2 mg/kg and 1.0 mg/kg) formulated in 20% propylene glycol/20% Vitamin E TPGS/60% water (see Table 1A for formulations). Animals were divided into two groups based on the compound formulation (n=3/group). The Compound A solutions were administered to animals orally (PO) and animals were then monitored over a 24 h period.
# Blood samples (~0.2 mL) were collected according to a schedule (0.25, 0.5, 1, 2, 4, 6, 8, and 24 h following the initial dosing) by jugular vein by cannulation and EDTA-K2 was used as anticoagulant. Within 30 minutes of collection, the samples were centrifuged at approximately 4000 times g-force for 5 minutes at 4° C. to obtain blood plasma. The plasma samples were immediately divided into two aliquots (~75 μL each), transferred to a cryogenic vial, and stored in a freezer at −75±15° C. prior to analysis.
# The concentration of Compound A in plasma samples was determined by liquid chromatography-mass spectrometry (LC-MS/MS) using a Shimadzu HPLC (DGU-20A5R; LC-30AD; SIL-30AC; Rack changer II; CTO-30A; and CBM-20A) and an AB API 5500+LC/MS/MS instrument. Samples were analyzed on an Agilent Poroshell 120 EC-C18 4 μm (50×2.1 mm) column. Solution A in the mobile phase was 95% water (0.1% formic acid) and solution B was 95% acetonitrile in water (0.1% formic acid), injection volume was 10 μL, and flow rate was 0.6 mL/min.
# To prepare samples for analysis, serial concentrations were prepared by diluting the stock solution of analyte with a 50% acetonitrile in water solution. 5 μL working solutions (5, 10, 20, 50, 100, 500, 1000, 5000, and 10000 ng/ml) were added to 50 μL of the blank Lewis rat plasma to achieve calibration standards of ~0.5 to 1000 ng/ml (0.5, 1, 2, 5, 10, 50, 100, 500, and 1000 ng/ml) in a total volume of 55 μL. Five quality control samples at 1 ng/ml, 2 ng/ml, 5 ng/ml, 50 ng/ml, and 800 ng/ml for plasma were prepared independently of those used for the calibration curves. These QC samples were prepared on the day of analysis in the same way as calibration standards.
# 55 μL of standards, 55 μL of QC samples and 55 μL of unknown samples (50 μL of unknown rat plasma with 5 µL of blank solution) were added to 200 μL of acetonitrile containing IS mixture (verapamil) for precipitating protein respectively. The samples were then vortexed for 30 s. After centrifugation at 4° C., 3900 rpm for 15 min, the supernatant was diluted 3 times with water. 10 μL of diluted supernatant was injected into the LC/MS/MS system for quantitative analysis.
# [2] = UUO study: plasma concentration of Compound A; type: in vivo, rats; conditions: for concentration at 4 h: rat, plasma, oral, 10 mg/kg
# [3] = UUO study: serum urea levels; type: in vivo; conditions: UUO rats
# Description: Tables 30A-30B and FIG. 27A depict serum urea levels in sham rats (black bar), UUO rats treated with vehicle (grey bar), and UUO rats treated with Compound A (white bar).
# [4] = 0.2 mg/kg PO, individual animals
# [5] = male, Lewis, rat, plasma, po, 0.2 mg/kg, 0.2 mg/kg PO, individual animals
# [6] = male, Lewis, rat, plasma, po, 0.2 mg/kg, 0.2 mg/kg PO, mean
# [7] = male, Lewis, rat, plasma, po, 1 mg/kg, 1 mg/kg PO, individual animals
# [8] = male, Lewis, rat, plasma, po, 1 mg/kg, 1 mg/kg PO, mean
smiles,measurement,setting,value
"Cn1cc(-c2ccccc2)c(-c2cn(C)c(=O)c3[nH]c(-c4cnn(C(F)(F)F)c4)cc23)cc1=O [Compound A, 6-methyl-4-(1-methyl-2-oxo-5-phenyl-1,2-dihydropyridin-4-yl)-2-(1-(trifluoromethyl)-1H-pyrazol-4-yl)-1,6-dihydro-7H-pyrrolo[2,3-c]pyridin-7-one]",AUCInf,[1]; [4],82.0 ng·h/mL and 51.1 ng·h/mL and 103 ng·h/mL
same,AUC_%Extrap_obs,[1]; [4],7.28% and 43.9% and 3.68%
same,AUClast,[1]; [4],76.0 ng·h/mL and 28.7 ng·h/mL and 99.1 ng·h/mL
same,AUClast/D,[1]; [4],380 (ng · h/mL)/(mg/kg) and 143 (ng · h/mL)/(mg/kg) and 496 (ng · h/mL)/(mg/kg)
same,Cmax,[1]; [4],5.29 ng/mL and 8.20 ng/mL
same,MRTInf_obs,[1]; [4],9.52 h and 7.69 h
same,T1/2,[1]; [4],6.09 h and 4.94 h
same,AUC_%Extrap_obs,"[1]; 0.2 mg/kg PO, mean",18.3%
same,AUClast/D,"[1]; 0.2 mg/kg PO, mean",340 (ng · h/mL)/(mg/kg)
same,AUCInf,"[1]; 1 mg/kg PO, individual animals",454 ng·h/mL and 217 ng·h/mL
same,AUC_%Extrap_obs,"[1]; 1 mg/kg PO, individual animals",3.74% and 14.6%
same,AUClast,"[1]; 1 mg/kg PO, individual animals",437 ng·h/mL and 185 ng·h/mL and 447 ng·h/mL
same,AUClast/D,"[1]; 1 mg/kg PO, individual animals",437 (ng · h/mL)/(mg/kg) and 185 (ng · h/mL)/(mg/kg) and 447 (ng · h/mL)/(mg/kg)
same,Cmax,"[1]; 1 mg/kg PO, individual animals",47.5 ng/mL and 23.3 ng/mL and 44.9 ng/mL
same,MRTInf_obs,"[1]; 1 mg/kg PO, individual animals",11.4 h
same,T1/2,"[1]; 1 mg/kg PO, individual animals",9.35 h
same,AUC_%Extrap_obs,"[1]; 1 mg/kg PO, mean",9.2%
same,AUClast/D,"[1]; 1 mg/kg PO, mean",356 (ng · h/mL)/(mg/kg)
same,clinical symptoms,[1]; 0.2 and 1 mg/kg PO,no abnormal clinical symptoms observed
same,Plasma Concentration,"[1]; PO 1 mg/kg, 0.25 h, individual animals, 1 mg/kg",6.05 ng/mL and 2.36 ng/mL and 5.82 ng/mL
same,Plasma Concentration,"[1]; PO 1 mg/kg, 0.5 h, individual animals, 1 mg/kg",19.1 ng/mL
same,Plasma Concentration,"[1]; PO 1 mg/kg, 2 h, individual animals, 1 mg/kg",47.5 ng/mL and 23.3 ng/mL and 44.9 ng/mL
same,Plasma Concentration,"[1]; PO 1 mg/kg, 4 h, individual animals, 1 mg/kg",37.4 ng/mL and 15.0 ng/mL and 27.5 ng/mL
same,Plasma Concentration,"[1]; PO 1 mg/kg, 6 h, individual animals, 1 mg/kg",25.4 ng/mL and 9.27 ng/mL and 16.5 ng/mL
same,Plasma Concentration,"[1]; PO 1 mg/kg, 8 h, individual animals, 1 mg/kg",20.4 ng/mL and 7.30 ng/mL and 11.6 ng/mL
same,Plasma Concentration,"[1]; PO 1 mg/kg, 24 h, individual animals, 1 mg/kg",2.29 ng/mL and 2.35 ng/mL and 19.1 ng/mL
same,Tmax,[1]; [5],2 h
same,half-life,[1]; [5],6.51 h
same,Cmax,"[1]; male, Lewis, rat, plasma, po, 0.2 mg/kg, 0.2 mg/kg PO, individual animals, read-out: Cmax",7.99 ng/mL
same,MRT inf,[1]; [5],8.72 h
same,AUC(0-inf),[1]; [6],79 ng·h/mL
same,AUC(0-t),[1]; [6],67.9 ng·h/mL
same,Tmax,[1]; [6],2.67 h
same,half-life,[1]; [6],5.85 h
same,Cmax,"[1]; male, Lewis, rat, plasma, po, 0.2 mg/kg, 0.2 mg/kg PO, mean, read-out: Cmax",7.16 ng/mL
same,MRT inf,[1]; [6],8.65 h
same,concentration at 0.25 h,"[1]; male, Lewis, rat, plasma, po, 0.2 mg/kg, PO 0.2 mg/kg, 0.25 h, mean of 3 animals",0.34 ng/mL
same,concentration at 0.5 h,"[1]; male, Lewis, rat, plasma, po, 0.2 mg/kg, PO 0.2 mg/kg, 0.5 h, individual animals",2.31 ng/mL
same,concentration at 0.5 h,"[1]; male, Lewis, rat, plasma, po, 0.2 mg/kg, PO 0.2 mg/kg, 0.5 h, mean of 3 animals",1.77 ng/mL
same,concentration at 1 h,"[1]; male, Lewis, rat, plasma, po, 0.2 mg/kg, PO 0.2 mg/kg, individual animals",5.24 ng/mL
same,concentration at 1 h,"[1]; male, Lewis, rat, plasma, po, 0.2 mg/kg, PO 0.2 mg/kg, mean of 3 animals",4.51 ng/mL
same,concentration at 2 h,"[1]; male, Lewis, rat, plasma, po, 0.2 mg/kg, PO 0.2 mg/kg, 2 h, individual animals",7.99 ng/mL
same,concentration at 2 h,"[1]; male, Lewis, rat, plasma, po, 0.2 mg/kg, PO 0.2 mg/kg, 2 h, mean of 3 animals",7.09 ng/mL
same,concentration at 4 h,"[1]; male, Lewis, rat, plasma, po, 0.2 mg/kg, PO 0.2 mg/kg, 4 h, mean of 3 animals",6.11 ng/mL
same,concentration at 6 h,"[1]; male, Lewis, rat, plasma, po, 0.2 mg/kg, PO 0.2 mg/kg, 6 h, individual animals",4.13 ng/mL
same,concentration at 6 h,"[1]; male, Lewis, rat, plasma, po, 0.2 mg/kg, PO 0.2 mg/kg, 6 h, mean of 3 animals",4.48 ng/mL
same,concentration at 8 h,"[1]; male, Lewis, rat, plasma, po, 0.2 mg/kg, PO 0.2 mg/kg, 8 h, mean of 3 animals",3.96 ng/mL
same,concentration at 24 h,"[1]; male, Lewis, rat, plasma, po, 0.2 mg/kg, PO 0.2 mg/kg, 24 h, mean of 3 animals",0.389 ng/mL
same,Tmax,[1]; [7],2 h
same,half-life,[1]; [7],5.14 h
same,MRT inf,[1]; [7],7.1 h
same,AUC(0-inf),[1]; [8],335 ng·h/mL
same,AUC(0-t),[1]; [8],356 ng·h/mL
same,Tmax,[1]; [8],2 h
same,half-life,[1]; [8],7.24 h
same,Cmax,"[1]; male, Lewis, rat, plasma, po, 1 mg/kg, 1 mg/kg PO, mean, read-out: Cmax",38.6 ng/mL
same,MRT inf,[1]; [8],9.3 h
same,concentration at 0.25 h,"[1]; male, Lewis, rat, plasma, po, 1 mg/kg, PO 1 mg/kg, 0.25 h, mean of 3 animals",4.74 ng/mL
same,concentration at 0.5 h,"[1]; male, Lewis, rat, plasma, po, 1 mg/kg, PO 1 mg/kg, 0.5 h, mean of 3 animals",15.2 ng/mL
same,concentration at 1 h,"[1]; male, Lewis, rat, plasma, po, 1 mg/kg, PO 1 mg/kg, mean of 3 animals",30.4 ng/mL
same,concentration at 2 h,"[1]; male, Lewis, rat, plasma, po, 1 mg/kg, PO 1 mg/kg, 2 h, mean of 3 animals",38.6 ng/mL
same,concentration at 4 h,"[1]; male, Lewis, rat, plasma, po, 1 mg/kg, PO 1 mg/kg, 4 h, mean of 3 animals",26.6 ng/mL
same,concentration at 6 h,"[1]; male, Lewis, rat, plasma, po, 1 mg/kg, PO 1 mg/kg, 6 h, mean of 3 animals",17.1 ng/mL
same,concentration at 8 h,"[1]; male, Lewis, rat, plasma, po, 1 mg/kg, PO 1 mg/kg, 8 h, mean of 3 animals",13.1 ng/mL
same,concentration at 24 h,"[1]; male, Lewis, rat, plasma, po, 1 mg/kg, PO 1 mg/kg, 24 h, mean of 3 animals",7.9 ng/mL
same,Concentration,"[2]; UUO + Compound A, male SD rats, time 4 h, individual Test Subjects 1-8",220 ng/mL and 318 ng/mL and 133 ng/mL and 215 ng/mL and 132 ng/mL and 194 ng/mL and 198 ng/mL and 195 ng/mL
same,concentration at 4 h,"[2]; male, Sprague-Dawley, UUO + Compound A, male SD rats, time 4 h, mean of 8 test subjects, read-out: Concentration, Mean",201 ng/mL
same,concentration at 4 h,"[2]; po, four hours after final treatment, read-out: Mean plasma concentration",201 ng/mL
same,"Serum urea levels, difference between experimental groups",[3]; 10 mg/kg,No significant differences
same,Serum Urea (Mean + S.D.),[3]; 10 mg/kg QD,5.67 ± 0.71 mmol/L
same,Serum Urea,"[3]; Compound A 10 mg/kg QD, individual animals, 10 mg/kg",5.72 mmol/L and 5.03 mmol/L and 5.64 mmol/L and 6.28 mmol/L and 5.22 mmol/L and 4.77 mmol/L and 6.97 mmol/L and 5.71 mmol/L
